Measured values taken from PubChem BioAssay (NCI).
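Cultured in 96-well plates, cells were exposed to test compound for 48 hours across five concentrations. GI50 is the concentration that inhibits growth by half. TGI: concentration producing complete growth inhibition.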

Tests used:
Test in all cases: DTP human tumour cell line panel, 48 h
CCRF-CEM leukemia = system: CCRF-CEM leukemia
K-562 leukemia = system: K-562 leukemia
A498 renal = system: A498 renal
RXF 393 renal = system: RXF 393 renal
T-47D breast = system: T-47D breast
HS 578T breast = system: HS 578T breast
HCT-15 colon = system: HCT-15 colon
SF-268 CNS = system: SF-268 CNS
SNB-75 CNS = system: SNB-75 CNS
SK-OV-3 ovarian = system: SK-OV-3 ovarian
786-0 renal = system: 786-0 renal
OVCAR-4 ovarian = system: OVCAR-4 ovarian
SK-MEL-2 melanoma = system: SK-MEL-2 melanoma
NCI-H226 lung = system: NCI-H226 lung
MDA-MB-231 breast = system: MDA-MB-231 breast
SNB-19 CNS = system: SNB-19 CNS
OVCAR-8 ovarian = system: OVCAR-8 ovarian
HCT-116 colon = system: HCT-116 colon
UO-31 renal = system: UO-31 renal
HT29 colon = system: HT29 colon
NCI/ADR-RES ovarian = system: NCI/ADR-RES ovarian
OVCAR-5 ovarian = system: OVCAR-5 ovarian
SW-620 colon = system: SW-620 colon
EKVX NSCLC = system: EKVX NSCLC
A549 NSCLC = system: A549 NSCLC
SK-MEL-5 melanoma = system: SK-MEL-5 melanoma
BT-549 breast = system: BT-549 breast
PC-3 prostate = system: PC-3 prostate
DU-145 prostate = system: DU-145 prostate
M14 melanoma = system: M14 melanoma
MCF7 breast = system: MCF7 breast
SR leukemia = system: SR leukemia
MDA-MB-435 = system: MDA-MB-435
IGROV1 ovarian = system: IGROV1 ovarian
HOP-62 NSCLC = system: HOP-62 NSCLC
NCI-H522 lung = system: NCI-H522 lung
HCC-2998 colon = system: HCC-2998 colon
NCI-H23 lung = system: NCI-H23 lung
KM12 colon = system: KM12 colon
TK-10 renal = system: TK-10 renal
U251 CNS = system: U251 CNS
SN12C renal = system: SN12C renal
RPMI-8226 leukemia = system: RPMI-8226 leukemia
ACHN renal = system: ACHN renal
OVCAR-3 ovarian = system: OVCAR-3 ovarian
COLO 205 colon = system: COLO 205 colon
LOX IMVI melanoma = system: LOX IMVI melanoma
UACC-62 melanoma = system: UACC-62 melanoma
HL-60(TB) leukemia = system: HL-60(TB) leukemia
SK-MEL-28 melanoma = system: SK-MEL-28 melanoma
HOP-92 NSCLC = system: HOP-92 NSCLC
NCI-H460 lung = system: NCI-H460 lung
CAKI-1 renal = system: CAKI-1 renal
UACC-257 melanoma = system: UACC-257 melanoma
SF-295 CNS = system: SF-295 CNS
MALME-3M melanoma = system: MALME-3M melanoma
SF-539 CNS = system: SF-539 CNS

Q: `CC[C@H](CO)Nc1nc(NCc2ccccc2)c2ncn(C(C)C)c2n1` was tested. Which GI50 (CCRF-CEM leukemia) did it give?
A: Its GI50 is greater than 50.6 µM.

Q: And the TGI (CCRF-CEM leukemia)?
A: Its TGI is greater than 100 µM.

Q: And the GI50 (K-562 leukemia)?
A: Its GI50 is 40.3 µM.

Q: And the TGI (K-562 leukemia)?
A: The TGI was greater than 100 µM.

Q: And the GI50 (A498 renal)?
A: Its GI50 is 30.1 µM.

Q: And the TGI (A498 renal)?
A: Its TGI is greater than 88.7 µM.

Q: What about the TGI (RXF 393 renal) of the same compound?
A: Its TGI is greater than 52.4 µM.

Q: What about the GI50 (T-47D breast) of the same compound?
A: The GI50 was 21.7 µM.

Q: And the TGI (T-47D breast)?
A: Its TGI is greater than 84.2 µM.

Q: What about the GI50 (HS 578T breast) of the same compound?
A: Its GI50 is 20.8 µM.

Q: What about the TGI (HS 578T breast) of the same compound?
A: Its TGI is 68.2 µM.

Q: And the TGI (HCT-15 colon)?
A: The TGI was greater than 81.6 µM.

Q: What about the TGI (SF-268 CNS) of the same compound?
A: The TGI was greater than 75.1 µM.

Q: And the TGI (SNB-75 CNS)?
A: The TGI was 30.6 µM.

Q: What about the TGI (SK-OV-3 ovarian) of the same compound?
A: The TGI was greater than 100 µM.

Q: What about the GI50 (786-0 renal) of the same compound?
A: The GI50 was 31.9 µM.

Q: And the TGI (786-0 renal)?
A: The TGI was greater than 100 µM.

Q: What about the GI50 (OVCAR-4 ovarian) of the same compound?
A: The GI50 was 26.8 µM.

Q: And the TGI (OVCAR-4 ovarian)?
A: Its TGI is greater than 88.5 µM.

Q: What about the TGI (SK-MEL-2 melanoma) of the same compound?
A: The TGI was 44.6 µM.

Q: And the TGI (NCI-H226 lung)?
A: Its TGI is greater than 93.7 µM.

Q: What about the GI50 (MDA-MB-231 breast) of the same compound?
A: The GI50 was 32.2 µM.

Q: And the TGI (MDA-MB-231 breast)?
A: Its TGI is greater than 100 µM.

Q: What about the GI50 (SNB-19 CNS) of the same compound?
A: The GI50 was 26.4 µM.

Q: And the TGI (SNB-19 CNS)?
A: Its TGI is greater than 100 µM.

Q: And the GI50 (OVCAR-8 ovarian)?
A: The GI50 was 29.3 µM.

Q: What about the TGI (OVCAR-8 ovarian) of the same compound?
A: Its TGI is greater than 100 µM.

Q: And the GI50 (HCT-116 colon)?
A: Its GI50 is 11.1 µM.

Q: What about the TGI (HCT-116 colon) of the same compound?
A: Its TGI is greater than 100 µM.

Q: What about the GI50 (UO-31 renal) of the same compound?
A: The GI50 was 16.7 µM.

Q: What about the TGI (UO-31 renal) of the same compound?
A: Its TGI is 96.9 µM.

Q: And the GI50 (HT29 colon)?
A: The GI50 was 24.3 µM.

Q: And the TGI (HT29 colon)?
A: Its TGI is greater than 100 µM.

Q: And the GI50 (NCI/ADR-RES ovarian)?
A: Its GI50 is 10.9 µM.

Q: What about the TGI (NCI/ADR-RES ovarian) of the same compound?
A: Its TGI is 56.6 µM.

Q: And the GI50 (OVCAR-5 ovarian)?
A: The GI50 was 28 µM.

Q: What about the TGI (OVCAR-5 ovarian) of the same compound?
A: Its TGI is greater than 96.4 µM.

Q: And the GI50 (SW-620 colon)?
A: The GI50 was 49.3 µM.

Q: And the TGI (SW-620 colon)?
A: Its TGI is greater than 100 µM.

Q: And the TGI (EKVX NSCLC)?
A: Its TGI is 44.1 µM.

Q: And the GI50 (A549 NSCLC)?
A: The GI50 was 20.1 µM.

Q: What about the TGI (A549 NSCLC) of the same compound?
A: Its TGI is greater than 100 µM.

Q: What about the TGI (SK-MEL-5 melanoma) of the same compound?
A: The TGI was 35.5 µM.

Q: And the TGI (BT-549 breast)?
A: The TGI was 45.3 µM.

Q: And the TGI (PC-3 prostate)?
A: Its TGI is 70 µM.

Q: And the GI50 (DU-145 prostate)?
A: The GI50 was 19.9 µM.

Q: And the TGI (DU-145 prostate)?
A: Its TGI is greater than 100 µM.

Q: And the GI50 (M14 melanoma)?
A: The GI50 was 31.6 µM.

Q: And the TGI (M14 melanoma)?
A: The TGI was greater than 100 µM.

Q: And the TGI (MCF7 breast)?
A: Its TGI is greater than 81.5 µM.

Q: And the TGI (SR leukemia)?
A: The TGI was greater than 79.8 µM.

Q: And the GI50 (MDA-MB-435)?
A: The GI50 was 20.1 µM.

Q: What about the TGI (MDA-MB-435) of the same compound?
A: The TGI was greater than 73.6 µM.

Q: What about the GI50 (IGROV1 ovarian) of the same compound?
A: The GI50 was 11.9 µM.

Q: And the TGI (IGROV1 ovarian)?
A: Its TGI is greater than 86.2 µM.

Q: And the GI50 (HOP-62 NSCLC)?
A: The GI50 was 29.4 µM.

Q: What about the TGI (HOP-62 NSCLC) of the same compound?
A: Its TGI is greater than 94 µM.

Q: What about the TGI (NCI-H522 lung) of the same compound?
A: The TGI was 57.8 µM.

Q: And the GI50 (HCC-2998 colon)?
A: Its GI50 is 24.7 µM.

Q: What about the TGI (HCC-2998 colon) of the same compound?
A: Its TGI is greater than 75.2 µM.

Q: And the TGI (NCI-H23 lung)?
A: Its TGI is 41.9 µM.

Q: What about the GI50 (KM12 colon) of the same compound?
A: Its GI50 is 10.6 µM.

Q: And the TGI (KM12 colon)?
A: The TGI was 60.2 µM.

Q: What about the GI50 (TK-10 renal) of the same compound?
A: The GI50 was 44.9 µM.

Q: What about the TGI (TK-10 renal) of the same compound?
A: The TGI was greater than 100 µM.

Q: What about the GI50 (U251 CNS) of the same compound?
A: Its GI50 is 40 µM.

Q: What about the TGI (U251 CNS) of the same compound?
A: The TGI was greater than 100 µM.

Q: And the GI50 (SN12C renal)?
A: Its GI50 is 27 µM.

Q: And the TGI (SN12C renal)?
A: Its TGI is greater than 100 µM.

Q: What about the TGI (RPMI-8226 leukemia) of the same compound?
A: The TGI was greater than 77.8 µM.

Q: And the GI50 (ACHN renal)?
A: The GI50 was 16.4 µM.

Q: What about the TGI (ACHN renal) of the same compound?
A: Its TGI is greater than 85.9 µM.

Q: What about the GI50 (OVCAR-3 ovarian) of the same compound?
A: The GI50 was 12.9 µM.

Q: What about the TGI (OVCAR-3 ovarian) of the same compound?
A: The TGI was greater than 67.4 µM.

Q: And the TGI (COLO 205 colon)?
A: Its TGI is 36.6 µM.

Q: And the TGI (LOX IMVI melanoma)?
A: The TGI was greater than 84.1 µM.

Q: What about the GI50 (UACC-62 melanoma) of the same compound?
A: Its GI50 is 10.5 µM.

Q: And the TGI (UACC-62 melanoma)?
A: Its TGI is 34 µM.

Q: And the TGI (HL-60(TB) leukemia)?
A: Its TGI is greater than 79.9 µM.

Q: And the GI50 (SK-MEL-28 melanoma)?
A: The GI50 was 21.5 µM.

Q: What about the TGI (SK-MEL-28 melanoma) of the same compound?
A: The TGI was 74.9 µM.

Q: And the GI50 (HOP-92 NSCLC)?
A: The GI50 was 28.1 µM.

Q: What about the TGI (HOP-92 NSCLC) of the same compound?
A: The TGI was greater than 90.7 µM.

Q: What about the TGI (NCI-H460 lung) of the same compound?
A: Its TGI is greater than 100 µM.

Q: And the GI50 (CAKI-1 renal)?
A: Its GI50 is 10.9 µM.

Q: And the TGI (CAKI-1 renal)?
A: The TGI was greater than 100 µM.

Q: What about the TGI (UACC-257 melanoma) of the same compound?
A: Its TGI is 98.7 µM.

Q: What about the GI50 (SF-295 CNS) of the same compound?
A: The GI50 was 21.8 µM.

Q: What about the TGI (SF-295 CNS) of the same compound?
A: The TGI was greater than 79.6 µM.

Q: What about the TGI (MALME-3M melanoma) of the same compound?
A: The TGI was 50 µM.

Q: What about the TGI (SF-539 CNS) of the same compound?
A: The TGI was 53.6 µM.
